Tested on: Pseudomonas aeruginosa PAO1
Test: MBEC assay, biofilm formation of P. aeruginosa PAO1
Format: cell-based
Conditions: compound concentration 100 μM, class symbols
Protocol: The compound to be tested was dissolved in DMSO to obtain a concentration that was 100 times that of the final concentration required (1 mM for the 10 μM assay and 10 mM for the 100 μM assay). 1.5 μL of the above solution was placed into each well of a 96 well plate (final volume in each well=150 μL, final DMSO concentration of 1% (v/v)).
To grow the organism and form a biofilm, a cryogenic stock of the test organism (at −70° C.) was used. A first sub-culture was streaked out onto TSA (tryptic soy agar), upon which the plate was incubated at 35±2° C. for 24 hours and stored wrapped in parafilm at 4° C. afterwards. From this first sub-culture, a second sub-culture was streaked out onto TSA. The plate was incubated at 35±2° C. for 24 hours. The second sub-culture was used within 24 hours starting from the time it was first removed from incubation. Using the second sub-culture an inoculum in 3 mL sterile water that matches a 0.5 McFarland Standard (1.5×10^8 cells per mL) was created in a glass test tube using a sterile cotton swab. 2.2 mL of this solution was diluted in 22 mL 100% TSB (tryptic soy broth) medium to a cell density of approximately […]. The diluted organism was inverted 3-5 times to achieve uniform mixing of the organism. One sample (100 μl) of the diluted organism was used for an inoculum check by serially diluting and spot plating on TSA.
To prepare a challenge plate, […] of the diluted organism was added to each well of a 96 well plate except the sterility control wells. The test compounds were added to the wells to make up final concentrations of 10 μM and […] (1.5 μL/well) in the designated location in the test plate. 128.5 μL of 100% universal neutralizer (1% Tween 80 in Cation Adjusted Mueller Hinton Broth, CAMHB) was placed in each of the wells. 130 μL of media was added to the growth control wells. 128.5 μL of media+1.5 μL of DMSO were added to a second set of growth control wells. 150 μL of media was added to the sterility controls. Each sample was run in triplicate. The plate was covered by a lid with a peg per well and wrapped in parafilm and placed on a shaker in a humidified incubator (GeneVac) at 35±+2° C. for 24 hours set at 110 rpm.
Rinse plate(s) of 0.9% saline (200 μL per well) were prepared in a sterile 96 well microtitre plate. Lid-associated pegs were rinsed in 0.9% saline for approximately 1-2 minutes. The peg lid was transferred to the recovery media (1.0% Tween 80 in CAMHB) then sonicated for 30 minutes to dislodge surviving biofilm. Following sonication, 100 μL from each well of the 96 well plate was placed into the first 12 wells of the first row of a 96 well microtiter plate. 180 μl of 0.9% sterile saline was placed in the remaining rows. A serial dilution (10^0-10^7) was prepared by moving 20 μl down each of the 8 rows. 20 μl from each well was removed and spot plated on a prepared TSA. In the remaining recovery plate, 100 μl of fresh growth media (1.0% Tween 80 in CAMHB) was placed in each well to replace the amount removed. The recovery plate was covered with a regular lid and incubated at 35±2° C. for 24 hours and read visually to confirm antimicrobial activity of the test compounds.
The compounds of the present disclosure have been tested regarding their efficiency to inhibit biofilm formation of Staphylococcus aureus U of C#18 (MRSA), Staphylococcus aureus 456 (MRSA), Staphylococcus epidermidis RP62A, and Pseudomonas aeruginosa PAO1.

| SMILES | inhibition at 100 µM [%] |
| --- | --- |
| CCCCCCCCCCCC(=O)N1CCC(C(=O)Nc2ccccc2)C1 (stereo not drawn) [Example 151, 1-dodecanoyl-N-phenylpyrrolidine-3-carboxamide] | 20 to 50 |
| CCN(CC)C(=O)C1CCCN(C(=O)CCCCCCCCCCCS(C)(=O)=O)C1 (stereo not drawn) [Example 142, N,N-diethyl-1-(12-(methylsulfonyl)dodecanoyl)piperidine-3-carboxamide] | 20 to 50 |
| CCCCCCCCCCCC(=O)Nc1cccc(F)c1 [Example 17, N-(3-fluorophenyl)dodecanamide] | 20 to 50 |
| CCCCCCCCCCCC(=O)Nc1ccc(F)cc1 [Example 19, N-(4-fluorophenyl)dodecanamide] | < 20 |
| CCCCCCCCCCCCCCCCNC(=O)Nc1cc(C(C)(C)C)nn1C [Example 91, 1-(3-tert-butyl-1-methylpyrazol-5-yl)-3-hexadecylurea] | 20 to 50 |
| CCCCCCCCCCCCNC(=O)Nc1cc(C)nn1C [Example 83, 1-(1,3-dimethylpyrazol-5-yl)-3-dodecylurea] | 20 to 50 |
| CCCCCCCCCCCC(=O)N1CCC(C(=O)Nc2cc(C(C)(C)C)nn2C)C1 (stereo not drawn) [Example 154, N-(3-tert-butyl-1-methylpyrazol-5-yl)-1-dodecanoylpyrrolidine-3-carboxamide] | 20 to 50 |
| COCCOCCOCC(=O)Nc1cc(C)nn1C [Example 128, N-(1,3-dimethylpyrazol-5-yl)-2-(2-(2-methoxyethoxy)ethoxy)acetamide] | < 20 |
| CCCCCCCCCCNC(=O)Nc1nc(-c2ccccc2)cs1 [Example 79, 1-decyl-3-(4-phenylthiazol-2-yl)urea] | 20 to 50 |
| CCCCCCCCCCCCNC(=O)Nc1cc(C2CC2)nn1C [Example 84, 1-(3-cyclopropyl-1-methylpyrazol-5-yl)-3-dodecylurea] | < 20 |
| CCCCCCCCCCCC(=O)Nc1ccccc1C(F)(F)F [Example 23, N-(2-(trifluoromethyl)phenyl)dodecanamide] | < 20 |
| CCCCCCCCCCNC(=O)Nc1cc(C)nn1C(C)(C)C [Example 70, 1-(1-tert-butyl-3-methylpyrazol-5-yl)-3-decylurea] | > 50 |
| CCCCCCCCCCNC(=O)N(C)c1cccc(F)c1 [Example 52, 3-decyl-1-(3-fluorophenyl)-1-methylurea] | 20 to 50 |
| CCCCCCCCCCCC(=O)N1CCC(C(=O)N2CCCC2)C1 (stereo not drawn) [Example 149, 1-(3-(pyrrolidine-1-carbonyl)pyrrolidin-1-yl)dodecan-1-one] | > 50 |
| CCCCCCCCCCNC(=O)N(C)c1ccc(F)cc1 [Example 54, 3-decyl-1-(4-fluorophenyl)-1-methylurea] | > 50 |
| CCCCCCCCCCNC(=O)Nc1cc(C)ns1 [Example 62, 1-decyl-3-(3-methylisothiazol-5-yl)urea] | < 20 |
| CCCCCCCCCCCC(=O)N1CCC(C(=O)N(C(C)C)C(C)C)C1 (stereo not drawn) [Example 150, 1-dodecanoyl-N,N-diisopropylpyrrolidine-3-carboxamide] | > 50 |
| CCCCOCCOCC(=O)Nc1cc(C)ns1 [Example 123, 2-(2-butoxyethoxy)-N-(3-methylisothiazol-5-yl)acetamide] | < 20 |
| CCCCCCCCCCCC(=O)N1CCC(C(N)=O)CC1 [Example 131, 1-dodecanoylpiperidine-4-carboxamide] | 20 to 50 |
| CCCCCCCCCCNC(=O)/N=c1/cc(-c2ccccc2)n(C)n1C [Example 73, 1-decyl-3-(1,2-dimethyl-5-phenylpyrazol-3-ylidene)urea] | > 50 |
| CCCCCCCCCCNC(=O)Nc1cc(C2CC2)nn1C(C)=O [Example 67, 1-(1-acetyl-3-cyclopropylpyrazol-5-yl)-3-decylurea] | > 50 |
| COCCOCCOCC(=O)N(C)c1ccc(F)cc1 [Example 125, N-(4-fluorophenyl)-2-(2-(2-methoxyethoxy)ethoxy)-N-methylacetamide] | < 20 |
| CCCCCCCCOCCC(=O)Nc1cc(C(C)(C)C)nn1C [Example 116, N-(3-tert-butyl-1-methylpyrazol-5-yl)-3-(octyloxy)propanamide] | > 50 |

| SMILES | inhibition at 100 µM [%] |
| --- | --- |
| CCCCCCCCCC(=O)NC(=O)N[C@@H](C)c1ccccc1 [Example 97, (S)-N-(1-phenylethylcarbamoyl)decanamide] | 20 to 50 |
| CCCCCCCCCCCC(=O)N1CCCC(C(N)=O)C1 (stereo not drawn) [Example 130, 1-dodecanoylpiperidine-3-carboxamide] | > 50 |
| CCCCCCCCCCCC(=O)Nc1ccc(F)cc1C(F)(F)F [Example 24, N-(4-fluoro-2-(trifluoromethyl)phenyl)dodecanamide] | < 20 |
| CCCCCCCCCCCC(=O)N(C)c1ccccc1C(=O)O [Example 26, 2-(N-methyldodecanamido)benzoic acid] | 20 to 50 |
| CCCCCCCCCCNC(=O)Nc1cc(C2CC2)n[nH]1 [Example 65, 1-(3-cyclopropylpyrazol-5-yl)-3-decylurea] | > 50 |
| CCCCCCCCCCCCCCNC(=O)Nc1cc(C)nn1C [Example 87, 1-(1,3-dimethylpyrazol-5-yl)-3-tetradecylurea] | < 20 |
| CCCCCCCCCCCC(=O)N(C)c1ccccc1F [Example 16, N-(2-fluorophenyl)-N-methyldodecanamide] | > 50 |
| CCCCCCCCCOCC(=O)N[C@@H](C)c1ccccc1 [Example 104, (S)-2-(nonyloxy)-N-(1-phenylethyl)acetamide] | > 50 |
| CCCCCCCCCCCNC(=O)Nc1cc(-c2ccccc2)nn1C [Example 82, 1-(1-methyl-3-phenylpyrazol-5-yl)-3-undecylurea] | < 20 |
| CCCCCCCCCCNC(=O)N(C)c1cc(C(C)(C)C)nn1C [Example 69, 1-(3-tert-butyl-1-methylpyrazol-5-yl)-3-decyl-1-methylurea] | > 50 |
| CCCCCCCCCCNC(=O)Nc1ccccc1F [Example 49, 1-decyl-3-(2-fluorophenyl)urea] | < 20 |
| CCCCOCCOCC(=O)Nc1ccc(F)cc1C(F)(F)F [Example 120, 2-(2-butoxyethoxy)-N-(4-fluoro-2-(trifluoromethyl)phenyl)acetamide] | 20 to 50 |
| CCCCCCCCCOCC(=O)Nc1cc(-c2ccccc2)nn1C [Example 108, N-(1-methyl-3-phenylpyrazol-5-yl)-2-(nonyloxy)acetamide] | > 50 |
| CCN(CC)C(=O)C1CCCN(C(=O)CCCCCCCCCNS(C)(=O)=O)C1 (stereo not drawn) [Example 143, N,N-diethyl-1-(10-(methylsulfonamido)decanoyl)piperidine-3-carboxamide] | 20 to 50 |
| CCCCCCCCCCCC(=O)Nc1cc(C)nn1-c1ccccc1 [Example 31, N-(3-methyl-1-phenylpyrazol-5-yl)dodecanamide] | < 20 |
| CCCCCCCCCCNC(=O)N(C)c1ccccc1F [Example 50, 3-decyl-1-(2-fluorophenyl)-1-methylurea] | 20 to 50 |
| CCCCCCCCCCCC(=O)N(C)c1ccccc1 [Example 14, N-methyl-N-phenyldodecanamide] | > 50 |
| CCCCCCCCCCCNC(=O)Nc1cc(C2CC2)nn1C [Example 80, 1-(3-cyclopropyl-1-methylpyrazol-5-yl)-3-undecylurea] | 20 to 50 |
| CCN(CC)C(=O)C1CCCN(C(=O)CCCCCCN2CCN(C)CC2)C1 (stereo not drawn) [Example 140, N,N-diethyl-1-(7-(4-methylpiperazin-1-yl)heptanoyl)piperidine-3-carboxamide] | < 20 |
| CCCCCCCCCC(=O)N1CCCC(C(=O)N(CC)CC)C1 (stereo not drawn) [Example 135, 1-decanoyl-N,N-diethylpiperidine-3-carboxamide] | > 50 |
| CCCCCCCCCCCC(=O)N1CCCC(C(=O)NCC)C1 (stereo not drawn) [Example 133, 1-dodecanoyl-N-ethylpiperidine-3-carboxamide] | > 50 |
| CCCCCCCCCCCC(=O)Nc1ccccc1 [Example 13, N-phenyldodecanamide] | < 20 |

From patent US20090192192A1, “INHIBITORS OF BIOFILM FORMATION OF GRAM-POSITIVE AND GRAM-NEGATIVE BACTERIA” (priority 2007, published 2009)
